Where two headings read alike, the source gives them in different places. Marks after values point to notes of the source that are not given here.
Tests used:
[1] = tested on: foliar fungal diseases of plants; format: in vivo; design: key to disease control grading, […] (VINE): 4: no disease; 3: trace −5% of disease on untreated plants; key to disease control grading, PUCCINIA RECONDITA (WHEAT) / disease control grading, VENTURIA INAEQUALIS (APPLE) / disease control grading, CERCOSPORA ARACHIDICOLA (PEANUT) / disease control grading, PH[…] (TOMATO) / disease control grading, P[…] (RICE): 4: no disease; 3: trace −5% of disease on untreated plants; 6-25% of disease on untreated plants; 1: 26-59% of disease on untreated plants; 60-100% of disease on untreated plants; conditions: for disease control grading, CERCOSPORA ARACHIDICOLA (PEANUT): Cercospora arachidicola on peanut; for disease control grading, P[…] (RICE): P[…] on rice; for disease control grading, PH[…] (TOMATO): Ph[…] on tomato; for disease control grading, PUCCINIA RECONDITA (WHEAT): Puccinia recondita on wheat; for disease control grading, VENTURIA INAEQUALIS (APPLE): Venturia inaequalis on apple; for disease control grading, […] (VINE): […] on vine
[2] = tested on: Erysiphe graminis; experiment: Foliar fungal disease test on Erysiphe graminis, plants inoculated 24 hours before treatment (Table V); format: in vivo; design: key: 4: no disease; 3: trace −5% of disease on untreated plants; 6-25% of disease on untreated plants; 1: 26-59% of disease on untreated plants; 60-100% of disease on untreated plants
[3] = applied to soil (roots) and foliage one or two days before inoculation
[4] = plants inoculated 24 hours before treatment

Row | Structure (SMILES) | disease control grading, CERCOSPORA ARACHIDICOLA (PEANUT) [1, 3] | disease control grading, P[…] (RICE) [1, 3] | disease control grading, PH[…] (TOMATO) [1, 3] | disease control grading, PUCCINIA RECONDITA (WHEAT) [1, 3] | disease control grading, VENTURIA INAEQUALIS (APPLE) [1, 3] | disease control grading, […] (VINE) [1, 3] | disease control grading, ERYSIPHE GRAMINIS (BARLEY) [2, 4] | disease control grading, CERCOSPORA ARACHIDICOLA (PEANUT) ([1]; 25 ppm foliar spray only) | disease control grading, P[…] (RICE) ([1]; 25 ppm foliar spray only) | disease control grading, PH[…] (TOMATO) ([1]; 25 ppm foliar spray only) | disease control grading, PUCCINIA RECONDITA (WHEAT) ([1]; 25 ppm foliar spray only) | disease control grading, VENTURIA INAEQUALIS (APPLE) ([1]; 25 ppm foliar spray only) | disease control grading, […] (VINE) ([1]; 25 ppm foliar spray only) | disease control grading, ERYSIPHE GRAMINIS (BARLEY) ([2]; 25 ppm foliar spray only)
1 | CO/C=C(/C(=O)OC)c1ccccc1COc1ccc(Br)cc1 [159 (Table I)] | 4 | 0 (60-100% of disease on untreated plants) | 3 (trace −5% of disease on untreated plants) | 4 | 4 | 0 (60-100% of disease on untreated plants) | 3 (trace −5% of disease on untreated plants) | – | – | – | – | – | – | –
2 | CO/C=C(/C(=O)OC)c1ccccc1COc1cccc(CO)c1 [178 (Table I)] | 3 (trace −5% of disease on untreated plants) | 2 (6-25% of disease on untreated plants) | 2 (6-25% of disease on untreated plants) | 3 (trace −5% of disease on untreated plants) | 0 (60-100% of disease on untreated plants) | 4 | 0 (60-100% of disease on untreated plants) | – | – | – | – | – | – | –
3 | CO/C=C(/C(=O)OC)c1ccccc1COc1cccc(F)c1 [155 (Table I)] | 4 | 4 | 4 | 4 | 4 | 4 | 4 | – | – | – | – | – | – | –
4 | CO/C=C(/C(=O)OC)c1ccccc1COc1ccc(F)cc1 [156 (Table I)] | 4 | 0 (60-100% of disease on untreated plants) | 4 | 4 | 4 | 4 | 4 | – | – | – | – | – | – | –
5 | CO/C=C(/C(=O)OC)c1ccccc1COc1cccc(C=O)c1 [175 (Table I)] | 1 (26-59% of disease on untreated plants) | 0 (60-100% of disease on untreated plants) | 4 | 3 (trace −5% of disease on untreated plants) | 4 | 4 | 1 (26-59% of disease on untreated plants) | – | – | – | – | – | – | –
6 | CO/C=C(/C(=O)OC)c1ccccc1COc1cccc(Oc2ccccc2)n1 [185 (Table I)] | 4 | 4 | 4 | 4 | 2 (6-25% of disease on untreated plants) | 4 | 4 | – | – | – | – | – | – | –
7 | CCCN(Cc1ccccc1/C(=C\OC)C(=O)OC)c1ccccc1 [4 (Table III)] | – | – | – | – | – | – | – | 0* (60-100% of disease on untreated plants) | 0* (60-100% of disease on untreated plants) | 0* (60-100% of disease on untreated plants) | 0* (60-100% of disease on untreated plants) | 3* (trace −5% of disease on untreated plants) | 1* (26-59% of disease on untreated plants) | 0* (60-100% of disease on untreated plants)
8 | CO/C=C(/C(=O)OC)c1ccccc1COc1cccc([N+](=O)[O-])c1 [161 (Table I)] | 3 (trace −5% of disease on untreated plants) | 0 (60-100% of disease on untreated plants) | 1 (26-59% of disease on untreated plants) | 3 (trace −5% of disease on untreated plants) | 4 | 4 | 3 (trace −5% of disease on untreated plants) | – | – | – | – | – | – | –
9 | CO/C=C(/C(=O)OC)c1ccccc1CSc1ccccc1 [1 (Table II)] | 0 (60-100% of disease on untreated plants) | 3 (trace −5% of disease on untreated plants) | 4 | 4 | 4 | 4 | 2 (6-25% of disease on untreated plants) | – | – | – | – | – | – | –
10 | CO/C=C(/C(=O)OC)c1ccccc1COc1cccc(O)c1 [171 (Table I)] | 3 (trace −5% of disease on untreated plants) | 0 (60-100% of disease on untreated plants) | 3 (trace −5% of disease on untreated plants) | 3 (trace −5% of disease on untreated plants) | 4 | 4 | 1 (26-59% of disease on untreated plants) | – | – | – | – | – | – | –
11 | CO/C=C(/C(=O)OC)c1ccccc1COc1cccc(OC)c1 [160 (Table I)] | 3 (trace −5% of disease on untreated plants) | 3 (trace −5% of disease on untreated plants) | 4 | 4 | 4 | 4 | 4 | – | – | – | – | – | – | –
12 | CO/C=C(/C(=O)OC)c1ccccc1COc1cccc(OCc2ccccc2)c1 [184 (Table I)] | 4 | 3 (trace −5% of disease on untreated plants) | 4 | 4 | 4 | 4 | 4 | – | – | – | – | – | – | –
13 | CCc1ccccc1OCc1ccccc1/C(=C\OC)C(=O)OC [27 (Table I)] | 4 | 1 (26-59% of disease on untreated plants) | 4 | 4 | 4 | 0 (60-100% of disease on untreated plants) | 4 | – | – | – | – | – | – | –
14 | CO/C=C(/C(=O)OC)c1ccccc1COc1cccc(C(F)(F)F)n1 [177 (Table I)] | – | 4 | 4 | 4 | 4 | 4 | 4 | – | – | – | – | – | – | –
15 | CO/C=C(/C(=O)OC)c1ccccc1COc1c(Cl)cccc1Cl [44 (Table I)] | 3 (trace −5% of disease on untreated plants) | 2 (6-25% of disease on untreated plants) | 3 (trace −5% of disease on untreated plants) | 4 | 4 | 4 | 4 | – | – | – | – | – | – | –
16 | CO/C=C(/C(=O)OC)c1ccccc1COc1cccc(/C=N/c2ccccc2)c1 [179 (Table I)] | 0 (60-100% of disease on untreated plants) | 2 (6-25% of disease on untreated plants) | 4 | 3 (trace −5% of disease on untreated plants) | 0 (60-100% of disease on untreated plants) | 4 | 0 (60-100% of disease on untreated plants) | – | – | – | – | – | – | –
17 | CO/C=C(/C(=O)OC)c1ccccc1COc1cccc(Oc2cccc(C)c2)c1 [181 (Table I)] | 4 | 3 (trace −5% of disease on untreated plants) | 4 | 4 | 4 | 4 | 4 | – | – | – | – | – | – | –
18 | CO/C=C(/C(=O)OC)c1ccccc1COc1cccc(Oc2ccccc2)c1 [165 (Table I)] | 0 (60-100% of disease on untreated plants) | 4 | 4 | 4 | 0 (60-100% of disease on untreated plants) | 4 | 4 | – | – | – | – | – | – | –
19 | CO/C=C(/C(=O)OC)c1ccccc1COc1cc(Cl)cc(Cl)c1 [162 (Table I)] | 4 | 2 (6-25% of disease on untreated plants) | 3 (trace −5% of disease on untreated plants) | 4 | 4 | 4 | 4 | – | – | – | – | – | – | –

Source: US6653258B1 (priority 1987, dated 2003)
